We go through six compounds from US12122763B2, “Substituted piperidines for androgen receptor degradation” (UBIX THERAPEUTICS, INC., priority 2020, dated 2024).

The inhibition is the change of the read-out against control, counted positive when it falls.

Structures are written as SMILES.

This test has as its target T1, Androgen Receptor (AR) protein (Homo sapiens, UniProt P10275, T878A).
T1 construct: endogenous in cells; host or cells: LNCaP
In words: Androgen Receptor (AR) protein degradation assay in LNCaP cells, western blotting. Format: cell-based. Particulars: 20 h; for inhibition at 0.01 µM: 0.01 μM compound; for inhibition at 0.1 µM: 0.1 μM compound; for inhibition at 1 µM: 1 μM compound. A digest of the protocol: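 AR protein level was detected by western blot (ECL) against GAPDH or β-actin controls, with 8 μg lysate protein loaded per lane after BCA quantification. Lysates came from LNCaP cells exposed to test compound for 20 h, following 3 days of growth in RPMI/10% FBS.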
(In western blotting, separated proteins are transferred to a membrane and probed.)

T1 sequence (P10275 whole entry T878A): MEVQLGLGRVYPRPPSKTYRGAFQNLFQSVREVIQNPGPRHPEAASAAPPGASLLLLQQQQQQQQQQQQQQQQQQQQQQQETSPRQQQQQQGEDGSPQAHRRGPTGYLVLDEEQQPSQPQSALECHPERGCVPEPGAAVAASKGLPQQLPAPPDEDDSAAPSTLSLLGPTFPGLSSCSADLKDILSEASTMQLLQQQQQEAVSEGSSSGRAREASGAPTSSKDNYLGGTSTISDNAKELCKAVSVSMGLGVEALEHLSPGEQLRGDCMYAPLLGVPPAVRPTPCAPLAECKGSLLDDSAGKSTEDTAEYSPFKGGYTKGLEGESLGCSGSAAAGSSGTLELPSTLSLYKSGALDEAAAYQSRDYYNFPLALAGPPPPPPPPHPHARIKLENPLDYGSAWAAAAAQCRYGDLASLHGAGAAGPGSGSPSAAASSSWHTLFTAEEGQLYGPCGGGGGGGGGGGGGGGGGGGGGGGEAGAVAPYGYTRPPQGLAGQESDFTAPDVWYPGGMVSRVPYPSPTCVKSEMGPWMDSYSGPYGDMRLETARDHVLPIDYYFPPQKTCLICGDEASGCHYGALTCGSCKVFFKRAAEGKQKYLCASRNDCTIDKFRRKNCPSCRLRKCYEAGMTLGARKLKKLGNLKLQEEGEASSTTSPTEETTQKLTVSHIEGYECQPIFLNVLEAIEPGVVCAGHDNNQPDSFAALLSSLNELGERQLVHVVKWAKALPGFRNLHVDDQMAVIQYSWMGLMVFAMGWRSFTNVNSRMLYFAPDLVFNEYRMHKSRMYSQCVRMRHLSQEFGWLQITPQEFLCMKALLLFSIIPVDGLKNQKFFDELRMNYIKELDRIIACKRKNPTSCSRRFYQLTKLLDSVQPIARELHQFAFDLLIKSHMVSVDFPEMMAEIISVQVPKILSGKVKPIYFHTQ
T1 sequence (Q96SW2 whole entry partner): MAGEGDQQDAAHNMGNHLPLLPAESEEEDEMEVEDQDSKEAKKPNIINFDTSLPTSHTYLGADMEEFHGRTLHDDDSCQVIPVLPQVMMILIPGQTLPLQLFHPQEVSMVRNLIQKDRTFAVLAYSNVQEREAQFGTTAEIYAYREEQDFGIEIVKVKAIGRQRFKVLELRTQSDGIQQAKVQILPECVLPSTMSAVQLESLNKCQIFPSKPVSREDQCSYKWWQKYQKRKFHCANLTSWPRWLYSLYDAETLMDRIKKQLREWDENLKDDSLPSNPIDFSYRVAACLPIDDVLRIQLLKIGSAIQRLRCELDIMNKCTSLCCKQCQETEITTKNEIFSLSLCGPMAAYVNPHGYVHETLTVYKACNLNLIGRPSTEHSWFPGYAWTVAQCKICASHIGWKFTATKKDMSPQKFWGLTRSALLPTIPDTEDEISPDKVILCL

The compound `N#Cc1ccc(N2CCC(C(=O)Nc3ccc(N4CCC(CN5CCN(C6CCN(c7cccc8c7C(=O)N(C7CCC(=O)NC7=O)C8=O)CC6)CC5)CC4)cn3)CC2)cc1C(F)(F)F` (stereo not drawn) [Example 76, 1-(4-cyano-3-(trifluoromethyl)phenyl)-N-(5-(4-((4-(1-(2-(2,6-dioxopiperidin-3-yl)-1,3-dioxoisoindolin-4-yl)piperidin-4-yl)piperazin-1-yl)methyl)piperidin-1-yl)pyridin-2-yl)piperidine-4-carboxamide] registered an inhibition at 0.01 µM of 36%, an inhibition at 0.1 µM of 85% and an inhibition at 1 µM of 88%.

With `N#Cc1ccc(N2CCC(C(=O)Nc3ccc(N4CCC(CN5CC(N6CCN(c7ccc8c(c7)C(=O)N(C7CCC(=O)NC7=O)C8=O)CC6)C5)CC4)cn3)CC2)cc1C(F)(F)F` (stereo not drawn) [Example 77, 1-(4-cyano-3-(trifluoromethyl)phenyl)-N-(5-(4-((3-(4-(2-(2,6-dioxopiperidin-3-yl)-1,3-dioxoisoindolin-5-yl)piperazin-1-yl)azetidin-1-yl)methyl)piperidin-1-yl)pyridin-2-yl)piperidine-4-carboxamide], the inhibition at 0.01 µM was 46%, testing at 0.1 µM gave an inhibition of 96% and the inhibition at 1 µM turned out to be 97%.

For the compound `N#Cc1ccc(N2CCC(C(=O)Nc3ccc(N4CCC(CN5CC(N6CCN(c7ccc8c(n7)CN(C7CCC(=O)NC7=O)C8=O)CC6)C5)CC4)cn3)CC2)cc1C(F)(F)F` (stereo not drawn) [Example 78, 1-(4-cyano-3-(trifluoromethyl)phenyl)-N-(5-(4-((3-(4-(6-(2,6-dioxopiperidin-3-yl)-5-oxo-6,7-dihydro-5H-pyrrolo[3,4-b]pyridin-2-yl)piperazin-1-yl)azetidin-1-yl)methyl)piperidin-1-yl)pyridin-2-yl)piperidine-4-carboxamide], testing at 0.01 µM gave an inhibition of 49%, testing at 0.1 µM gave an inhibition of 88% and 1 µM produced 71% inhibition.

Compound `N#Cc1ccc(N2CCC(C(=O)Nc3ccc(N4CCC(CN5CC(CN6CCN(c7ccc8c(c7)C(=O)N(C7CCC(=O)NC7=O)C8=O)CC6)C5)CC4)cn3)CC2)cc1C(F)(F)F` (stereo not drawn) [Example 79, 1-(4-cyano-3-(trifluoromethyl)phenyl)-N-(5-(4-((3-((4-(2-(2,6-dioxopiperidin-3-yl)-1,3-dioxoisoindolin-5-yl)piperazin-1-yl)methyl)azetidin-1-yl)methyl)piperidin-1-yl)pyridin-2-yl)piperidine-4-carboxamide] returned an inhibition at 0.01 µM of 31%, an inhibition at 0.1 µM of 94% and an inhibition at 1 µM of 95%.

As for `N#Cc1ccc(N2CCC(C(=O)Nc3ccc(N4CCC(CN5CC(CN6CCN(c7ccc8c(n7)CN(C7CCC(=O)NC7=O)C8=O)CC6)C5)CC4)cn3)CC2)cc1C(F)(F)F` (stereo not drawn) [Example 80, 1-(4-cyano-3-(trifluoromethyl)phenyl)-N-(5-(4-((3-((4-(6-(2,6-dioxopiperidin-3-yl)-5-oxo-6,7-dihydro-5H-pyrrolo[3,4-b]pyridin-2-yl)piperazin-1-yl)methyl)azetidin-1-yl)methyl)piperidin-1-yl)pyridin-2-yl)piperidine-4-carboxamide], the inhibition at 0.01 µM was 34%, 0.1 µM produced 90% inhibition and the inhibition at 1 µM was 57%.

Take `N#Cc1ccc(N2CCC(C(=O)Nc3ccc(N4CCC(CN5CCC(CN6CCN(c7ccc8c(c7)C(=O)N(C7CCC(=O)NC7=O)C8=O)CC6)CC5)CC4)cn3)CC2)cc1C(F)(F)F` (stereo not drawn) [Example 81, 1-(4-cyano-3-(trifluoromethyl)phenyl)-N-(5-(4-((4-((4-(2-(2,6-dioxopiperidin-3-yl)-1,3-dioxoisoindolin-5-yl)piperazin-1-yl)methyl)piperidin-1-yl)methyl)piperidin-1-yl)pyridin-2-yl)piperidine-4-carboxamide]: the inhibition at 0.01 µM stood at 44%, 0.1 µM produced 87% inhibition and the inhibition at 1 µM stood at 96%.
